In publication PMC3855985, “Simultaneous Determination of Volatile Constituents from Acorus tatarinowii Schott in Rat Plasma by Gas Chromatography-Mass Spectrometry with Selective Ion Monitoring and Application in Pharmacokinetic Study” (Journal of Analytical Methods in Chemistry, 2013):

Assay: Pharmacokinetic study in rats after single oral dose of volatile oil of Acorus tatarinowii Schott (GC-MS/SIM of plasma)
Conditions: for CL / Vd / AUC(0~t) / AUC(0~∞) / C max / T1/2 α / T 1/2β / T max: rats (n = 6); for CL / Vd / Compartment model of the plasma profile / AUC(0~t) / AUC(0~∞) / C max / T1/2 α / T 1/2β / T max: single oral dose 0.2 g/kg volatile oil of Acorus tatarinowii Schott; for Compartment model of the plasma profile: rats
Procedure: GC-MS analyses were performed with a Shimadzu GC-MS QP2010 (Kyoto, Japan). Chromatographic separation was achieved on a Restek Rxi-5MS capillary column (30 m × 0.32 mm I.D., 0.25 μm film thickness, Shimadzu, Japan) using nitrogen as carrier gas at 2 mL/min in a constant flow rate mode. […] The temperatures of injector, interface, and ion source were 250, 280, and 230°C, respectively. Detection was operated by selected ionmonitoring (SIM) mode (70 eV, electron impact mode).
In the SIM mode, the peaks of α-asarone, β-asarone, methyl eugenol, and IS in plasma were identified by matching the retention time and the abundant ions of m/z 178 for methyl eugenol, m/z 208 for α-asarone, β-asarone, and m/z 144 for IS. The injection volume was 1.0 μL. Data were collected using the GC-MS solution (Kyoto, Japan).
Six healthy male Sprague-Dawley rats, weighing 250–280 g, were supplied by the Guangdong Laboratory Animals Monitoring Institute (Guangdong, China). The rats were housed in a standard animal holding room with normal access to food and water and 12 h light cycle. The animals were fasted overnight prior to dosing, with water allowance ad libitum. All animal experiments were carried out according to the Guidelines for the Care and Use of Laboratory Animals and were approved by the Animal Experimentation Ethics Committee.
In a 1.5 mL Eppendorf tube, 100 μL of plasma was spiked with 10 μL of 2.0 μg/mL IS solution. An aliquot of 40 μL 10% (V : V) trichloracetic acid water solution and 600 μL acetonitrile was used to remove the proteins in the plasma through vortexed for 2 min followed by the centrifugation of 10 min at 8000 rpm. The supernatant was collected in a clean tube for next use, while the residue was extracted by 300 μL acetic ether for three times. The acetic ether layer and the above supernatant were collected together and evaporated to dryness under a stream of nitrogen. The residue was dissolved in 100 μL of acetone for further GC-MS analysis.
Volatile oil of Acorus tatarinowii Schott was administered orally to the rat in a single dose of 0.2 g/kg. Blood samples were collected in heparinized tube at 0, 5, 10, 20, 30, 60, 90, 120, 180, 300, 480, 720, 960, and 1200 min after dose. All the samples were extracted and analyzed under the proposed condition.
The Microsoft Excel Program Drug and Statistics 2.0 (T.C.M. Shanghai, China) was employed to process and calculate the pharmacokinetic parameters. The parameters of the area under curve (AUC), the maximum plasma concentration (C max) and the corresponding time (t max), the half-life of absorption (t 1/2), and so forth were used to decrypt the pharmacokinetic properties of α-asarone, β-asarone, and methyl eugenol. Statistical analysis of the biological data was performed by the Student's t-test. All results were expressed as arithmetic mean ± standard deviation (SD).

[1] = male, Sprague-Dawley, rat, plasma, po, 0.2 g/kg

Row | AUC(0-inf) [1] [ng·h/mL] | AUC(0-t) [1] [ng·h/mL] | Cmax [1] [ng/mL] | Tmax [1] [min] | half-life [1] [min] | Structure (SMILES) | CL (plasma) [mL/min/kg] | Vd (plasma) [L/kg] | Compartment model of the plasma profile | AUC(0~t) (plasma) [mg·min/L] | AUC(0~∞) (plasma) [mg·min/L] | C max (plasma) [ng/mL] | T1/2 α (plasma) [min] | T 1/2β (plasma) [min] | T max (plasma) [min]
1 | 41.5 | 35.5 | 21 ± 1 | 10 | 67.7 ± 3.32 | C=CCc1ccc(OC)c(OC)c1 [Methyl Eugenol, Methyl eugenol] | 0.40 ± 0.04 | 39.35 ± 4.08 | one-compartment open models | – | – | – | – | – | –
2 | – | – | – | – | – | C/C=C/c1cc(OC)c(OC)cc1OC [α-Asarone] | 0.60 ± 0.44 | 22.93 ± 16.11 | two-compartment open model | 47.51 ± 28.49 | 56.67 ± 35.91 | 530 ± 240 | 58.92 ± 20.80 | 69.28 ± 6.12 | 11.25 ± 6.29
3 | – | – | – | – | – | C/C=C\c1cc(OC)c(OC)cc1OC [β-Asarone, β-asarone] | 0.38 ± 0.05 | 149.87 ± 90.78 | two-compartment open model | 368.43 ± 40.05 | 407.52 ± 55.78 | 2470 ± 580 | 54.39 ± 29.46 | 69.30 ± 0.21 | 13.75 ± 11.09
